Tests used:
Substance-P receptor [1] = molecular target: Substance-P receptor (Cavia porcellus, UniProt P30547); experiment: Binding affinity towards Tachykinin receptor 1 binding in guinea pig cerebral cortex membranes was determined using [3H]SP as the radioligand; assay type: tissue-based, Membrane
Substance-P receptor [2] = molecular target: T1, Substance-P receptor (Rattus norvegicus, UniProt P14600); experiment: Binding affinity towards Tachykinin receptor 1 in rat cerebral cortex membranes was determined by using 125 [I]-BHSP as radioligand; assay type: cell membranes, Membrane
T1 sequence (P14600 whole entry): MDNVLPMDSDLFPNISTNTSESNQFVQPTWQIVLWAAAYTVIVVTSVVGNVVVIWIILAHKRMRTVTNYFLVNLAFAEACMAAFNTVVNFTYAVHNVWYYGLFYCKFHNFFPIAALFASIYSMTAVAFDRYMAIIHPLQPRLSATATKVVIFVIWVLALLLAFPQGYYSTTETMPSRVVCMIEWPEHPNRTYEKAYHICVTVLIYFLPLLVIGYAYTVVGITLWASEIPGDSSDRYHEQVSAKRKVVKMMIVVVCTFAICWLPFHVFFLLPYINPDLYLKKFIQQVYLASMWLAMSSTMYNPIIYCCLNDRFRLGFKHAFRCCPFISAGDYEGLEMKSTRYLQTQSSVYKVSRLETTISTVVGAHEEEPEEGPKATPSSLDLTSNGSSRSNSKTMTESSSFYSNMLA

Substance-K receptor = molecular target: T2, Substance-K receptor (Mesocricetus auratus, UniProt P51144); experiment: Ability to displace the binding of [125I]iodohistidyl-NKA to Tachykinin receptor 2 in hamster urinary bladder membranes was determined.; assay type: cell membranes, Membrane
T2 sequence (P51144 whole entry): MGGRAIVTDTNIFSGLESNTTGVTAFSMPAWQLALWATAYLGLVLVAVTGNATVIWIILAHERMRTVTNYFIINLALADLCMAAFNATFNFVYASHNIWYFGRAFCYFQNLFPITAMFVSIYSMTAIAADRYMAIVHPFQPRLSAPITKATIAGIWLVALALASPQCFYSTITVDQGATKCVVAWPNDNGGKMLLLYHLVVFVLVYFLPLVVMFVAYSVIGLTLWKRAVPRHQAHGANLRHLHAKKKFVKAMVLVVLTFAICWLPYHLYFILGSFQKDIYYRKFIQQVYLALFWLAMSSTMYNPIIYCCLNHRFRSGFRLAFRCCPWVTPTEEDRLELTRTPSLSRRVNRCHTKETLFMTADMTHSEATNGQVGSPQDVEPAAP

Neuromedin-K receptor = molecular target: T3, Neuromedin-K receptor (Rattus norvegicus, UniProt P16177); experiment: Ability to displace the binding of [3H]-Senktide to Tachykinin receptor 3 in rat cerebral cortex membranes was determined.; assay type: cell membranes, Membrane
T3 sequence (P16177 whole entry): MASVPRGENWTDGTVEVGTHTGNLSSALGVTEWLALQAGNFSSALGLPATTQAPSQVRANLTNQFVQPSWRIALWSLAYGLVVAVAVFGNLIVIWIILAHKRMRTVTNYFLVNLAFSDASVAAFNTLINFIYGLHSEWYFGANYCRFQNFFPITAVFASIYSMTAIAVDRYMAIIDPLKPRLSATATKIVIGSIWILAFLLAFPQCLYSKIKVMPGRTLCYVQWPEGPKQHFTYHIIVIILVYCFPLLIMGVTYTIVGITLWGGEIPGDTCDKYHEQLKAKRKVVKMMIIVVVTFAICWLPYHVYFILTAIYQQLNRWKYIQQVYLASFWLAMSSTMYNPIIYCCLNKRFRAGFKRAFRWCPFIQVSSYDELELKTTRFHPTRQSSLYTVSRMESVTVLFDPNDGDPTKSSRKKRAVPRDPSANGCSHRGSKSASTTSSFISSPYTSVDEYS

Substance-P receptor [3] = molecular target: T1, Substance-P receptor; experiment: The binding affinity towards NK1 receptor in rat cerebral cortex membranes was determined by using 125 [I]-BHSP as radioligand; assay type: cell membranes, Membrane

Sequence of Substance-P receptor (Cavia porcellus, UniProt P30547) (P30547 whole entry): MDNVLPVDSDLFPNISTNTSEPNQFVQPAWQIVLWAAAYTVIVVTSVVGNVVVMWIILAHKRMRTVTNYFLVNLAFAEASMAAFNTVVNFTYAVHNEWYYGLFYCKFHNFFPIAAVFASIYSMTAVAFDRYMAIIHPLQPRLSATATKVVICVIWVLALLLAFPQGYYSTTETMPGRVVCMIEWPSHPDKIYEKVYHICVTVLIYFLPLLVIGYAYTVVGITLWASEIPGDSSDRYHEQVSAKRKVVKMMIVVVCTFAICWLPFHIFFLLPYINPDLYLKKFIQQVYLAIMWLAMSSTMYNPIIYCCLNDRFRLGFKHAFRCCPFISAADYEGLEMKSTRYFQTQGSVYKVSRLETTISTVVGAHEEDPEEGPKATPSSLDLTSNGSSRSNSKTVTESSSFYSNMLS

SMILES | IC50 (Substance-P receptor [1]) [nM] | IC50 (Substance-P receptor [2]) [nM] | IC50 (Substance-K receptor) [µM] | IC50 (Neuromedin-K receptor) [µM] | IC50 (Substance-P receptor [3]) [µM]
CSCC[C@H](NC(=O)[C@H](CC(C)C)NC(=O)CNC(=O)[C@@H](NC(=O)[C@H](Cc1ccccc1)NC(=O)[C@H](Cc1ccccc1)NC(=O)[C@H](CC(=O)O)NC(=O)[C@H](Cc1c[nH]cn1)NC(=O)[C@H](CCSC)NC(=O)[C@@H](N)CC(=O)O)C(C)C)C(N)=O [NEUROKININ B] | 13 | 69 | – | – | –
c1ccc(CN[C@@H]2C3CCN(CC3)[C@@H]2C(c2ccccc2)c2ccccc2)cc1 | 52 | 2000 | ≥ 100 | ≥ 100 | –
Fc1ccccc1CN[C@@H]1C2CCN(CC2)[C@@H]1C(c1ccccc1)c1ccccc1 | 37 | 990 | ≥ 100 | ≥ 100 | –
Cc1ccccc1CN[C@@H]1C2CCN(CC2)[C@@H]1C(c1ccccc1)c1ccccc1 | 227 | 700 | ≥ 100 | ≥ 100 | –
COc1ccccc1CN[C@@H]1C2CCN(CC2)[C@@H]1C(c1ccccc1)c1ccccc1 | – | – | ≥ 100 | ≥ 100 | –
COc1ccccc1CO[C@@H]1C2CCN(CC2)[C@@H]1C(c1ccccc1)c1ccccc1 | 150 | ~10000 | ≥ 100 | ≥ 100 | –
FC(F)(F)c1ccccc1CN[C@@H]1C2CCN(CC2)[C@@H]1C(c1ccccc1)c1ccccc1 | 33 | 740 | ≥ 100 | ≥ 100 | –
Clc1ccccc1CCN[C@@H]1C2CCN(CC2)[C@@H]1C(c1ccccc1)c1ccccc1 | 160 | 7200 | ≥ 100 | ≥ 100 | –
COc1ccccc1CN[C@H]1C2CCN(CC2)[C@@H]1C(c1ccccc1)c1ccccc1 | – | – | ≥ 100 | ≥ 100 | –
Clc1ccccc1CCCN[C@@H]1C2CCN(CC2)[C@@H]1C(c1ccccc1)c1ccccc1 | 1100 | – | ≥ 100 | ≥ 100 | > 10
Clc1ccccc1CN[C@@H]1C2CCN(CC2)[C@@H]1C(c1ccccc1)c1ccccc1 | 8.5 | 110 | ≥ 100 | ≥ 100 | –
O=C(N[C@@H]1C2CCN(CC2)[C@@H]1C(c1ccccc1)c1ccccc1)c1ccccc1Cl | > 10000 | > 10000 | ≥ 100 | ≥ 100 | –
N[C@@H]1C2CCN(CC2)[C@@H]1C(c1ccccc1)c1ccccc1 | > 10000 | > 10000 | ≥ 100 | ≥ 100 | –
CSCC[C@H](NC(=O)[C@H](CC(C)C)NC(=O)CNC(=O)[C@@H](NC(=O)[C@H](Cc1ccccc1)NC(=O)[C@H](CO)NC(=O)[C@H](CC(=O)O)NC(=O)[C@@H](NC(=O)[C@H](CCCCN)NC(=O)[C@@H](N)Cc1cnc[nH]1)[C@@H](C)O)C(C)C)C(N)=O [NEUROKININ A] | 3.5 | – | – | – | –
COc1ccccc1CN[C@@H]1C2CCN(CC2)[C@@H]1Cc1ccccc1 | 1510 | > 1000 | ≥ 100 | ≥ 100 | –

From ChEMBL document CHEMBL1159145 (Bioorg Med Chem Lett, 1992)
